According to patent publication US8247211B2, “Glycopeptide antibiotics” (American Cyanamid Company, priority 2001, dated 2012):
Converted amounts (≈) assume the structure as drawn.

Tests used:
Test in all cases: In vitro antibacterial evaluation: minimum inhibitory concentration (MIC), broth dilution method
Format in all cases: cell-based
Streptococcus sp. = conditions: 18 hours at 35° C.
Summary of the method: (§1)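 An MIC is reported for each organism as the least concentration giving inhibition, using broth dilution over 64-0.06 μg/mL with a 5×10^5 CFU/mL inoculum.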

Escherichia coli = conditions: 18 hours at 35° C.
Summary of the method: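 Values are minimum inhibitory concentrations, meaning the smallest antibiotic concentration that stops growth of the organism. They come from broth dilution in Muller-Hinton II […] per NCCLS guidance (M7-A2), using 5×10^5 CFU/mL and concentrations from 64 to 0.06 μg/mL.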

Enterococcus sp. = conditions: 18 hours at 35° C.
Summary of the method: as §1

Staphylococcus sp. = system: Staphylococcus sp.
Summary of the method: as §1

[1] = Streptococcus agalactiae (GC 4564)
[2] = Streptococcus pneumoniae (GC 4565)
[3] = Enterococcus faecalis (ATCC 29212)
[4] = Enterococcus faecalis (GC 2242)
[5] = Enterococcus faecalis (GC 4552)
[6] = Enterococcus faecalis (GC 4553)
[7] = Enterococcus faecalis (GC 4554)
[8] = broth dilution, inoculum 5×10^5 CFU/mL

## γ-O-[(Dodecylamino)carbonyl]-cyclo[glycyl-β-methylphenylalanyl-O-(4-O-hexopyranosylhexopyranosyl]tyrosyl-3-(2-iminoimidazolidin-4-yl)seryl-3-(3-hexopyranosyl-2-iminoimidazolidin-4-yl)serylseryl] [Example 254b]
Streptococcus sp.; [1]
  MIC Streptococcus agalactiae (GC 4564): <0.5 µg/mL
Streptococcus sp.; [2]
  MIC Streptococcus pneumoniae (GC 4565): <0.5 µg/mL
Streptococcus sp.; Streptococcus pyogenes (ID-3187)
  MIC Streptococcus pyogenes (ID-3187): <0.5 µg/mL
Streptococcus sp.; broth dilution, strain GC 4564
  MIC Streptococcus agalactiae (GC 4564): <0.5 µg/mL
Streptococcus sp.; broth dilution, strain GC 4565
  MIC Streptococcus pneumoniae (GC 4565): <0.5 µg/mL
Streptococcus sp.; broth dilution, strain ID-3187
  MIC Streptococcus pyogenes (ID-3187): <0.5 µg/mL
Escherichia coli
  MIC Escherichia coli (ATCC 25922): 64 µg/mL
  MIC Escherichia coli (GC 4559): 64 µg/mL
  MIC Escherichia coli (GC 4560): 16 µg/mL
Enterococcus sp.; Enterococcus avium (GC 4558)
  MIC Enterococcus avium (GC 4558): 4 µg/mL
Enterococcus sp.; [3]
  MIC Enterococcus faecalis (ATCC 29212): 8 µg/mL
Enterococcus sp.; [4]
  MIC Enterococcus faecalis (GC 2242): 8 µg/mL
Enterococcus sp.; [5]
  MIC Enterococcus faecalis (GC 4552): 8 µg/mL
Enterococcus sp.; [6]
  MIC Enterococcus faecalis (GC 4553): 4 µg/mL
Enterococcus sp.; [7]
  MIC Enterococcus faecalis (GC 4554): 4 µg/mL
Enterococcus sp.; Enterococcus faecium (GC 2243)
  MIC Enterococcus faecium (GC 2243): 4 µg/mL
Enterococcus sp.; Enterococcus faecium (GC 4556)
  MIC Enterococcus faecium (GC 4556): 8 µg/mL
Enterococcus sp.; Enterococcus faecium (GC 4557)
  MIC Enterococcus faecium (GC 4557): 8 µg/mL
Enterococcus sp.; broth dilution, strain ATCC 29212
  MIC Enterococcus faecalis (ATCC 29212): 8 µg/mL
Enterococcus sp.; broth dilution, strain GC 2242
  MIC Enterococcus faecalis (GC 2242): 8 µg/mL
Enterococcus sp.; broth dilution, strain GC 2243
  MIC Enterococcus faecium (GC 2243): 4 µg/mL
Enterococcus sp.; broth dilution, strain GC 4552
  MIC Enterococcus faecalis (GC 4552): 8 µg/mL
Enterococcus sp.; broth dilution, strain GC 4553
  MIC Enterococcus faecalis (GC 4553): 4 µg/mL
Enterococcus sp.; broth dilution, strain GC 4554
  MIC Enterococcus faecalis (GC 4554): 4 µg/mL
Enterococcus sp.; broth dilution, strain GC 4556
  MIC Enterococcus faecium (GC 4556): 8 µg/mL
Enterococcus sp.; broth dilution, strain GC 4557
  MIC Enterococcus faecium (GC 4557): 8 µg/mL
Enterococcus sp.; broth dilution, strain GC 4558
  MIC Enterococcus avium (GC 4558): 4 µg/mL
Staphylococcus sp.; Coagulase Negative Staphylococcus (GC 4547), 18 hours at 35° C.
  MIC Coagulase Negative Staphylococcus (GC 4547): 8 µg/mL
Staphylococcus sp.; Coagulase Negative Staphylococcus (GC 4548), 18 hours at 35° C.
  MIC Coagulase Negative Staphylococcus (GC 4548): 2 µg/mL
Staphylococcus sp.; Coagulase Negative Staphylococcus (GC 4549), 18 hours at 35° C.
  MIC Coagulase Negative Staphylococcus (GC 4549): 4 µg/mL
Staphylococcus sp.; Coagulase Negative Staphylococcus (GC 4551), 18 hours at 35° C.
  MIC Coagulase Negative Staphylococcus (GC 4551): 4 µg/mL
Staphylococcus sp.; Coagulase Negative Staphylococcus (ID-3941), 18 hours at 35° C.
  MIC Coagulase Negative Staphylococcus (ID-3941): 2 µg/mL
Staphylococcus sp.; Staphylococcus aureus (ATCC 29213), 18 hours at 35° C.
  MIC Staphylococcus aureus (ATCC 29213): 8 µg/mL
Staphylococcus sp.; Staphylococcus aureus (GC 1131), 18 hours at 35° C.
  MIC Staphylococcus aureus (GC 1131): 4 µg/mL
Staphylococcus sp.; Staphylococcus aureus (GC 4541), 18 hours at 35° C.
  MIC Staphylococcus aureus (GC 4541): 4 µg/mL
Staphylococcus sp.; Staphylococcus aureus (GC 4542), 18 hours at 35° C.
  MIC Staphylococcus aureus (GC 4542): 8 µg/mL
Staphylococcus sp.; Staphylococcus aureus (GC 4544), 18 hours at 35° C.
  MIC Staphylococcus aureus (GC 4544): 8 µg/mL
Staphylococcus sp.; Staphylococcus aureus (GC 4545), 18 hours at 35° C.
  MIC Staphylococcus aureus (GC 4545): 8 µg/mL
Staphylococcus sp.; Staphylococcus aureus-SMITH (GC 4543), 18 hours at 35° C.
  MIC Staphylococcus aureus-SMITH (GC 4543): 4 µg/mL
Staphylococcus sp.; Staphylococcus haemolyticus (GC 4546), 18 hours at 35° C.
  MIC Staphylococcus haemolyticus (GC 4546): 8 µg/mL
Staphylococcus sp.; broth dilution, 18 hours at 35° C., strain ATCC 29213
  MIC Staphylococcus aureus (ATCC 29213): 8 µg/mL
Staphylococcus sp.; broth dilution, 18 hours at 35° C., strain GC 1131
  MIC Staphylococcus aureus (GC 1131): 4 µg/mL
Staphylococcus sp.; broth dilution, 18 hours at 35° C., strain GC 4541
  MIC Staphylococcus aureus (GC 4541): 4 µg/mL
Staphylococcus sp.; broth dilution, 18 hours at 35° C., strain GC 4542
  MIC Staphylococcus aureus (GC 4542): 8 µg/mL
Staphylococcus sp.; broth dilution, 18 hours at 35° C., strain GC 4543
  MIC Staphylococcus aureus-SMITH (GC 4543): 4 µg/mL
Staphylococcus sp.; broth dilution, 18 hours at 35° C., strain GC 4544
  MIC Staphylococcus aureus (GC 4544): 8 µg/mL
Staphylococcus sp.; broth dilution, 18 hours at 35° C., strain GC 4545
  MIC Staphylococcus aureus (GC 4545): 8 µg/mL
Staphylococcus sp.; broth dilution, 18 hours at 35° C., strain GC 4546
  MIC Staphylococcus haemolyticus (GC 4546): 8 µg/mL
Staphylococcus sp.; broth dilution, 18 hours at 35° C., strain GC 4547
  MIC Coagulase Negative Staphylococcus (GC 4547): 8 µg/mL
Staphylococcus sp.; broth dilution, 18 hours at 35° C., strain GC 4548
  MIC Coagulase Negative Staphylococcus (GC 4548): 2 µg/mL
Staphylococcus sp.; broth dilution, 18 hours at 35° C., strain GC 4549
  MIC Coagulase Negative Staphylococcus (GC 4549): 4 µg/mL
Staphylococcus sp.; broth dilution, 18 hours at 35° C., strain GC 4551
  MIC Coagulase Negative Staphylococcus (GC 4551): 4 µg/mL
Staphylococcus sp.; broth dilution, 18 hours at 35° C., strain ID-3941
  MIC Coagulase Negative Staphylococcus (ID-3941): 2 µg/mL

## CC(c1ccccc1)C1NC(=O)CNC(=O)C(CO)NC(=O)C(C(O)C2CNC(=N)N2C2OC(CO)C(O)C(O)C2O)NC(=O)C(C(O)C2CNC(=N)N2)NC(=O)C(Cc2ccc(OC3OC(CO)C(OC4OC5COC(c6cccc(Oc7cccc(C(F)(F)F)c7)c6)OC5C(O)C4O)C(O)C3O)cc2)NC1=O (stereo not drawn) [Example 184]
Streptococcus sp.; [1]
  MIC Streptococcus agalactiae (GC 4564): 0.12 µg/mL (≈ 0.0777 µM)
Streptococcus sp.; Streptococcus pneumoniae (ATCC 6301)
  MIC Streptococcus pneumoniae (ATCC 6301): <0.06 µg/mL
Streptococcus sp.; Streptococcus pneumoniae (GC 1894)
  MIC Streptococcus pneumoniae (GC 1894): <0.06 µg/mL
Streptococcus sp.; [2]
  MIC Streptococcus pneumoniae (GC 4565): <0.06 µg/mL
Streptococcus sp.; Streptococcus pyogenes (GC 4563)
  MIC Streptococcus pyogenes (GC 4563): 0.25 µg/mL (≈ 0.162 µM)
Streptococcus sp.; [8]
  MIC Streptococcus agalactiae (GC 4564): 0.12 µg/mL (≈ 0.0777 µM)
  MIC Streptococcus pneumoniae (ATCC 6301): <0.06 µg/mL
  MIC Streptococcus pneumoniae (GC 1894): <0.06 µg/mL
  MIC Streptococcus pneumoniae (GC 4565): <0.06 µg/mL
  MIC Streptococcus pyogenes (GC 4563): 0.25 µg/mL (≈ 0.162 µM)
Escherichia coli
  MIC Escherichia coli (ATCC 25922): >64 µg/mL
  MIC Escherichia coli (GC 4559): >64 µg/mL
  MIC Escherichia coli (GC 4560): 32 µg/mL (≈ 20.7 µM)
Enterococcus sp.; Enterococcus avium (GC 4558)
  MIC Enterococcus avium (GC 4558): 32 µg/mL (≈ 20.7 µM)
Enterococcus sp.; [3]
  MIC Enterococcus faecalis (ATCC 29212): 32 µg/mL (≈ 20.7 µM)
Enterococcus sp.; [4]
  MIC Enterococcus faecalis (GC 2242): 32 µg/mL (≈ 20.7 µM)
Enterococcus sp.; Enterococcus faecalis (GC 2691)
  MIC Enterococcus faecalis (GC 2691): 32 µg/mL (≈ 20.7 µM)
Enterococcus sp.; Enterococcus faecalis (GC 3059)
  MIC Enterococcus faecalis (GC 3059): 32 µg/mL (≈ 20.7 µM)
Enterococcus sp.; [5]
  MIC Enterococcus faecalis (GC 4552): 32 µg/mL (≈ 20.7 µM)
Enterococcus sp.; [6]
  MIC Enterococcus faecalis (GC 4553): 16 µg/mL (≈ 10.4 µM)
Enterococcus sp.; [7]
  MIC Enterococcus faecalis (GC 4554): 32 µg/mL (≈ 20.7 µM)
Enterococcus sp.; Enterococcus faecalis (GC 6189)
  MIC Enterococcus faecalis (GC 6189): 32 µg/mL (≈ 20.7 µM)
Enterococcus sp.; Enterococcus faecium (GC 2243)
  MIC Enterococcus faecium (GC 2243): 16 µg/mL (≈ 10.4 µM)
Enterococcus sp.; Enterococcus faecium (GC 4556)
  MIC Enterococcus faecium (GC 4556): 32 µg/mL (≈ 20.7 µM)
Enterococcus sp.; Enterococcus faecium (GC 4557)
  MIC Enterococcus faecium (GC 4557): 32 µg/mL (≈ 20.7 µM)
Enterococcus sp.; [8]
  MIC Enterococcus avium (GC 4558): 32 µg/mL (≈ 20.7 µM)
  MIC Enterococcus faecalis (ATCC 29212): 32 µg/mL (≈ 20.7 µM)
  MIC Enterococcus faecalis (GC 2242): 32 µg/mL (≈ 20.7 µM)
  MIC Enterococcus faecalis (GC 2691): 32 µg/mL (≈ 20.7 µM)
  MIC Enterococcus faecalis (GC 3059): 32 µg/mL (≈ 20.7 µM)
  MIC Enterococcus faecalis (GC 4552): 32 µg/mL (≈ 20.7 µM)
  MIC Enterococcus faecalis (GC 4553): 16 µg/mL (≈ 10.4 µM)
  MIC Enterococcus faecalis (GC 4554): 32 µg/mL (≈ 20.7 µM)
  MIC Enterococcus faecalis (GC 6189): 32 µg/mL (≈ 20.7 µM)
  MIC Enterococcus faecium (GC 2243): 16 µg/mL (≈ 10.4 µM)
  MIC Enterococcus faecium (GC 4556): 32 µg/mL (≈ 20.7 µM)
  MIC Enterococcus faecium (GC 4557): 32 µg/mL (≈ 20.7 µM)
Staphylococcus sp.; strain ATCC 29213
  MIC Staphylococcus aureus (ATCC 29213): 32 µg/mL (≈ 20.7 µM)
Staphylococcus sp.; strain GC 1131
  MIC Staphylococcus aureus (GC 1131): 32 µg/mL (≈ 20.7 µM)
Staphylococcus sp.; strain GC 3051
  MIC Staphylococcus aureus (GC 3051): 32 µg/mL (≈ 20.7 µM)
Staphylococcus sp.; strain GC 3053
  MIC Staphylococcus aureus (GC 3053): 32 µg/mL (≈ 20.7 µM)
Staphylococcus sp.; strain GC 4541
  MIC Staphylococcus aureus (GC 4541): 32 µg/mL (≈ 20.7 µM)
Staphylococcus sp.; strain GC 4542
  MIC Staphylococcus aureus (GC 4542): 32 µg/mL (≈ 20.7 µM)
Staphylococcus sp.; strain GC 4543
  MIC Staphylococcus aureus-SMITH (GC 4543): 32 µg/mL (≈ 20.7 µM)
Staphylococcus sp.; strain GC 4544
  MIC Staphylococcus aureus (GC 4544): 32 µg/mL (≈ 20.7 µM)
Staphylococcus sp.; strain GC 4545
  MIC Staphylococcus aureus (GC 4545): 32 µg/mL (≈ 20.7 µM)
Staphylococcus sp.; strain GC 4546
  MIC Staphylococcus haemolyticus (GC 4546): 32 µg/mL (≈ 20.7 µM)
Staphylococcus sp.; strain GC 4547
  MIC Coagulase Negative Staphylococcus (GC 4547): 32 µg/mL (≈ 20.7 µM)
Staphylococcus sp.; strain GC 4548
  MIC Coagulase Negative Staphylococcus (GC 4548): 16 µg/mL (≈ 10.4 µM)
Staphylococcus sp.; strain GC 4549
  MIC Coagulase Negative Staphylococcus (GC 4549): 32 µg/mL (≈ 20.7 µM)
Staphylococcus sp.; strain GC 4551
  MIC Coagulase Negative Staphylococcus (GC 4551): 32 µg/mL (≈ 20.7 µM)
Staphylococcus sp.; strain GC 6257
  MIC Coagulase Negative Staphylococcus (GC 6257): 16 µg/mL (≈ 10.4 µM)
